Type in all cases: cell-based
Assay [1] concerns the target T1, Tel-Jak2 (Homo sapiens, UniProt O60674).
T1 construct: The regions encompassing the kinase domains of JAK2 (nucleotides 2994–3914); TEL (ETV6, human P41212) N-terminal part encoded by nucleotides 1-487 of TEL; expressed in transfected cells; host or cells: BaF3 (murine) bearing pTET-off, transfected with pTELJAK2 (pTRE2 vector); the other entry of the earlier key: ETV6 (P41212, Transcription factor ETV6)
Description: Cellular growth inhibition assay (MTT), Tel-Jak2 transformed BaF3 cell line. Particulars: 40 hr incubation, read-out: Jak2: growth inhibitory activity (>50%) in transformed cell line Tel-Jak2. An excerpt: (§1) The coding region encompassing nucleotides 1–487 of TELwas amplified by PCR using the oligonucleotides 5TEL (5′-GGAGGATCCTGATCTCTCTCGCTGTGAGAC-3′) and 3TEL (5′-AGGC GTCGACTTCTTCTTCATGGTTCTG-3′) and U937 mRNA as template. A BamHI site was present into the 5TEL Primer, a SalI site was incorporated into the 3TEL primer. The regions encompassing the kinase domains of JAK2 (nucleotides 2994–3914; JAK2F 5′-ACGC GTCGACGGTGCCTTTGAAGACCGGGAT-3′; JAK2R 5′-ATAGTTTAGCGGCCGCTCAGAATGAAGGTCATTT-3′) and JAK3 (nucleotides 2520–3469; JAK3F 5′-GAAGTCGACTATGCCTGCCAAGACCCCACGATCTT-3′; JAK3R 5′-GGATCTAGACTATGAAAAGGACAGGGAGTGGTGTTT-3′) were generated by PCR using Taq DNA Polymerase (Gibco/BRL) and U937 mRNA as template. A SalI site was incorporated into the forward primer of JAK2 and JAK3, a NotI site was incorporated into the JAK2 reverse primer and a Xba I site was added to the reverse primer of JAK3.
(§2) A TEL/Jak2 fusion was generated by digestion of the TELPCR product with BamHI/SalI, digestion of the JAK2 PCR product with SalI/NotI followed by ligation and subcloning into the mammalian expression Vector pTRE 2 (Clontech) digested with BamHI-NotI (pTELJAK2). For JAK3 SalI/NotI cleaved kinase domain PCR product was ligated with BamHI/SalI cleaved TELproduct followed by ligation into BamHI/NotI cleaved pTRE2 (pTELJAK3).
(§3) The growth factor dependent myelomonocytic cell line BaF3 bearing the pTET-off plasmid (Clontech) was transfected with either pTELJAK2 or pTELJAK3 and the cells selected for factor independent growth. BaF 3 wild type cells were cultured in DMEM 10% FCS, 10% WEHI 3B conditioned medium. BaF3 TELJAK cells were cultured in DMEM 10% Tet-System Approved FBS (without WEHI 3B conditioned medium).
(§4) Cell suspensions were prepared by harvesting cells from culture. (Cells used in this test should be in later log phase growth and high viability.) Cells were diluted in correct growth medium to 1.1×final concentration (from 50000 cell/mL to 200,000 cell/mL, depending on cell line).
(§5) Compounds to be tested were added (10 μL, 10×final concentration) to a flat bottom 96-well plate. The cellular suspension (90 μL per well) was added, and the plate incubated for 40 hr at 37° C., 5% CO2. MTT (20 μL per well, 5 mg/mL in PBS) was added and the plates were returned to the incubator for a further 6 hours. Lysis buffer (100 μL per well, 10% SDS, 0.01N HCl) was added and the plate stored in the incubator overnight. The plate was then read at 590 nm.

Assay [2] concerns DU145. The assay is described as follows: Cellular growth inhibition assay (MTT), DU145 cells. Conditions: Homo sapiens, DU-145, 40 hr incubation, read-out: DU145: growth inhibitory activity. Here is the method:
as §4, §5

The target in assay [3] is T2, Tel-Jak3 (Homo sapiens, UniProt P52333).
T2 construct: TEL (ETV6, human P41212) N-terminal part encoded by nucleotides 1-487 of TEL; expressed in transfected cells; host or cells: BaF3 (murine) bearing pTET-off, transfected with pTELJAK3 (pTRE2 vector); the other entry of the earlier key: ETV6 (P41212, Transcription factor ETV6)
The assay is described as follows: Cellular growth inhibition assay (MTT), Tel-Jak3 transformed BaF3 cell line. Particulars: 40 hr incubation, read-out: Jak3: growth inhibitory activity (>50%) in transformed cell line Tel-Jak3.
Text: as §1, §2, §3, §4, §5

T1 sequence (O60674 with tags, fused parts or gaps): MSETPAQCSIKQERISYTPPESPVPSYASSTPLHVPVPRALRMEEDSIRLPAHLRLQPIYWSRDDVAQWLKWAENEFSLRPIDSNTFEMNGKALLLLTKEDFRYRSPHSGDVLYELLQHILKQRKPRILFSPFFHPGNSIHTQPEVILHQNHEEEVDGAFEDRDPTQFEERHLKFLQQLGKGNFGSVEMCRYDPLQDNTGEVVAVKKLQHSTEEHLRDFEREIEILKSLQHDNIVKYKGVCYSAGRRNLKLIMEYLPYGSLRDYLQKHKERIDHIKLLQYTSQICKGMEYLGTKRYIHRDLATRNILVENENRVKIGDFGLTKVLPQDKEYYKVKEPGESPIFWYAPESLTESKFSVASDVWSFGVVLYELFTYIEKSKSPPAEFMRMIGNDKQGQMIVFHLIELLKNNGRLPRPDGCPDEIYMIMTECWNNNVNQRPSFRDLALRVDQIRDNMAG
T2 sequence (P52333 with tags, fused parts or gaps): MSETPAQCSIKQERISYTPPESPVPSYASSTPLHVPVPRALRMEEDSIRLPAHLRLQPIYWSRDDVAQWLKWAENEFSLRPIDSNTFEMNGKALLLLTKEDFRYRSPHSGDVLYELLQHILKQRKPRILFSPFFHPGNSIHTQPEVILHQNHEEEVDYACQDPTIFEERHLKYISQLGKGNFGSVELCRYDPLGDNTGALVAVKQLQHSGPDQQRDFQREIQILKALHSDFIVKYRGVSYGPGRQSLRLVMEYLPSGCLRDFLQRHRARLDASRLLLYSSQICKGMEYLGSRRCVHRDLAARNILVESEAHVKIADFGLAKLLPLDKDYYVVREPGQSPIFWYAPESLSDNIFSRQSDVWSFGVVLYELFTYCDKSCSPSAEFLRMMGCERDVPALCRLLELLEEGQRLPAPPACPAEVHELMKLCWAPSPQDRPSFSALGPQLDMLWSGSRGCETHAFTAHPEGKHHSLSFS

For the compound `COc1cc(-c2cncc(NC(C)c3ccc(NCc4cccnc4)cc3)n2)ccc1O` (stereo not shown) [Chemistry 320], the inhibition at 50 µM in assay [1] is above 50%; in assay [2], below 50%; in assay [3] it was above 50%.

Turning to `COc1cc(-c2cncc(NC(C)c3ccc(NC(=O)CN4CCN(C)CC4)cc3)n2)ccc1O` (stereo not shown) [Chemistry 282], the inhibition at 50 µM in assay [1], in assay [2] and in assay [3] was above 50% each time.

For the compound `COc1cc(-c2cncc(N(C)[C@@H](C)c3ccccc3)n2)ccc1O` [Chemistry 142], the inhibition at 50 µM in assay [1] is above 50%; in assay [2], below 50%; in assay [3] it was above 50%.

For the compound `COc1cc(-c2cncc(N(C)Cc3ccccc3)n2)ccc1O` [Chemistry 137], the figures for the inhibition at 50 µM in assay [1], in assay [2] and in assay [3] were above 50%, below 50% and above 50%, respectively.

Regarding `COc1cc(-c2cncc(N[C@@H](C)c3ccc4ccccc4c3)n2)ccc1O` [Chemistry 155], the inhibition at 50 µM in assay [1] was above 50%; in assay [2], below 50%; in assay [3], above 50%.

For the compound `C[C@H](Nc1cncc(-c2ccc(NC(=O)C3CC3)cc2)n1)c1ccccc1` [Chemistry 193], the inhibition at 50 µM in assay [1], in assay [2] and in assay [3] was above 50% in each case.

Consider `CCN(CC)CCOc1ccc(C(C)Nc2cncc(-c3ccc(O)c(OC)c3)n2)cc1` (stereo not shown) [Chemistry 285], for which the inhibition at 50 µM in assay [1], in assay [2] and in assay [3] was above 50% each time.

With `COc1cc(-c2cncc(NCc3ccc(Cl)c(Cl)c3)n2)ccc1O` [Chemistry 139], the inhibition at 50 µM in assay [1] is above 50%; in assay [2] it was below 50%; in assay [3], above 50%.

Regarding `COc1cc(-c2cncc(NC(C)c3ccc(-c4ccncc4)cc3)n2)ccc1O` (stereo not shown) [Chemistry 266], the inhibition at 50 µM in assay [1], in assay [2] and in assay [3] was above 50% each time.

Regarding `COc1cc(-c2cncc(NC(C)c3cccc(NC(=O)c4cccnc4)c3)n2)ccc1O` (stereo not shown) [Chemistry 268], the inhibition at 50 µM in assay [1], in assay [2] and in assay [3] was above 50% each time.

Consider `COc1cc(-c2cncc(NC(C)c3ccc(C(=O)NCC4CC4)cc3)n2)ccc1O` (stereo not shown) [Chemistry 354], for which the inhibition at 50 µM in assay [1] was above 50%; in assay [2], below 50%; in assay [3], above 50%.

Consider `COc1cc(-c2cncc(N[C@@H](C)c3ccccc3)n2)ccc1O` [Chemistry 118], for which the inhibition at 50 µM in assay [1], in assay [2] and in assay [3] was above 50% in each case.

In the case of `COc1cc(-c2cncc(NC(C)c3ccc(-c4cccnc4)cc3)n2)ccc1O` (stereo not shown) [Chemistry 270], the inhibition at 50 µM in assay [1], in assay [2] and in assay [3] was above 50% throughout.

As to `COc1cc(-c2cncc(NC(C)c3ccc(NC(=O)c4ccncc4)cc3)n2)ccc1O` (stereo not shown) [Chemistry 279], the inhibition at 50 µM in assay [1], in assay [2] and in assay [3] was above 50% throughout.

For the compound `COc1cc(-c2cncc(NC(C)c3ccc(C(=O)NCCO)cc3)n2)ccc1O` (stereo not shown) [Chemistry 374], the inhibition at 50 µM was above 50% in assay [1], below 50% in assay [2] and above 50% in assay [3].

As to `C[C@H](Nc1cncc(-c2ccc(O)c(Cl)c2)n1)c1ccccc1` [Chemistry 175], the inhibition at 50 µM in assay [1] was below 50%; in assay [2], below 50%; in assay [3], above 50%.

Turning to `CC[C@H](Nc1cncc(-c2ccc(O)c(OC)c2)n1)c1ccccc1` [Chemistry 119], the inhibition at 50 µM in assay [1], in assay [2] and in assay [3] was above 50% throughout.

For `COc1cc(-c2cncc(NC(C)c3ccc(-c4ccccc4)cc3)n2)ccc1O` (stereo not shown) [Chemistry 185], the figures for the inhibition at 50 µM in assay [1], in assay [2] and in assay [3] were above 50%, below 50% and above 50%, respectively.

For `COc1cc(-c2cncc(NC(C)c3ccc(NC(=O)c4cccnc4)cc3)n2)ccc1O` (stereo not shown) [Chemistry 280], the inhibition at 50 µM is above 50% in assay [1], below 50% in assay [2] and above 50% in assay [3].

Turning to `COc1cc(-c2cncc(NC(C)c3ccc(C(=O)NCCN(C)C)cc3)n2)ccc1O` (stereo not shown) [Chemistry 352], the inhibition at 50 µM in assay [1] is above 50%; in assay [2], below 50%; in assay [3] it was above 50%.

On to `COc1cc(-c2cncc(NC(C)c3ccc(C(N)=O)cc3)n2)ccc1O` (stereo not shown) [Chemistry 304], for which the inhibition at 50 µM is above 50% in assay [1], below 50% in assay [2] and above 50% in assay [3].

As for `COc1cc(-c2cncc(NC(C)c3ccc(NC(=O)C4CCCN4C(=O)OC(C)(C)C)cc3)n2)ccc1O` (stereo not shown) [Chemistry 281], the inhibition at 50 µM in assay [1], in assay [2] and in assay [3] was above 50% throughout.

Regarding `COc1cc(-c2cncc(NCc3cccnc3)n2)ccc1O` [Chemistry 136], the inhibition at 50 µM in assay [1], in assay [2] and in assay [3] was above 50% each time.

On to `COc1cc(-c2cncc(NC(C)c3ccc(NCCN4CCN(C)CC4)cc3)n2)ccc1O` (stereo not shown) [Chemistry 318], for which the inhibition at 50 µM is above 50% in assay [1], below 50% in assay [2] and above 50% in assay [3].

`COc1cc(-c2cncc(NC(C)c3ccc(C(=O)O)cc3)n2)ccc1O` (stereo not shown) [Chemistry 324]: the inhibition at 50 µM in assay [1], in assay [2] and in assay [3] was below 50% in each case.

Regarding `COc1cc(-c2cncc(NC(C)c3ccncc3)n2)ccc1O` (stereo not shown) [Chemistry 200], the inhibition at 50 µM was above 50% in assay [1], below 50% in assay [2] and above 50% in assay [3].

Consider `COc1cc(-c2cncc(N[C@H]3CCc4ccccc43)n2)ccc1O` [Chemistry 68], for which the inhibition at 50 µM in assay [1] and in assay [3] was above 50% throughout.

For `CNC(=O)c1ccc(C(C)Nc2cncc(-c3ccc(O)c(OC)c3)n2)cc1` (stereo not shown) [Chemistry 370], the inhibition at 50 µM is above 50% in assay [1], below 50% in assay [2] and above 50% in assay [3].

On to `COc1cc(-c2cncc(Nc3cc(F)ccc3C)n2)ccc1O` [Chemistry 144], for which the values for the inhibition at 50 µM in assay [1], in assay [2] and in assay [3] were above 50%, below 50% and above 50%, respectively.

In the case of `C[C@H](Nc1cncc(-c2ccc(NS(C)(=O)=O)cc2)n1)c1ccccc1` [Chemistry 192], the inhibition at 50 µM in assay [1], in assay [2] and in assay [3] was above 50% in each case.

Regarding `COc1cc(-c2cncc(NC(C)c3ccc(N)cc3)n2)ccc1O` (stereo not shown) [Chemistry 319], the results for the inhibition at 50 µM in assay [1], in assay [2] and in assay [3] were above 50%, below 50% and above 50%, respectively.

As to `COc1cc(-c2cncc(N[C@H]3CCCc4ccccc43)n2)ccc1O` [Chemistry 87], the inhibition at 50 µM in assay [1] was above 50%; in assay [3], below 50%.

These data come from patent publication US7122550B2, “Protein kinase inhibitors” (Cytopia Pty Ltd, priority 2002, dated 2006).
